Key:
[1] = molecular target: cIAP1-BIR3 (Homo sapiens, UniProt Q13490); assay: Biacore SPR solution competition binding assay vs smac7 mer peptide, cIAP1-BIR3; conditions: citrate salt form tested; 6 nM cIAP1-BIR3; 25° C.; read-out: CIAP-BIR3 Binding Biacore (Competitive) EC50
Text: (§1) The compounds described herein above were profiled using a cellular assay (using SKOV3 or Panc3.27 tumor cells) and a binding assay to determine the competition between the compounds of the present invention and smac7 mer peptide for XIAP-BIR3 and cIAP1-BIR3 binding groove occupancy.
(§2) The present method includes utility of a Surface plasmon resonance (SPR)-based biosensor (Biacore™ GE Healthcare, Uppsala, Sweden) to examine competition between the compounds of the present invention and smac7 mer peptide for XIAP-BIR3 and cIAP1-BIR3 binding groove occupancy.
(§3) Biacore™ utilizes the phenomenon of surface plasmon resonance (SPR) to detect and measure binding interactions. In a typical Biacore experiment, one of the interacting molecules is immobilized on a flexible dextran matrix while the interacting partner is flowed over the derivatized surface. A binding interaction results in an increase in mass on the sensor surface and a corresponding direct change in the refractive index of the medium in the vicinity of the sensor surface. Changes in refractive index or signal are recorded in resonance units (R.U.) Signal changes due to association and dissociation of complexes are monitored in a non-invasive manner, continuously and in real-time, the results of which are reported in the form of a sensorgram.
(§4) Biacore™ T100 (GE Healthcare, Uppsala, Sweden) was used to conduct all experiments reported herein. Sensor surface preparation and interaction analyses were performed at 25° C. Buffer and Biacore reagents were purchased from GE Healthcare. Running buffer containing 10 mM Hepes, pH7.4, 150 mM sodium chloride, 1.25 mM Dithiothreitol, 2% Dimethyl sulfoxide and 0.05% polysorbate 20 was utilized throughout all experiments.
(§5) Biotinylated smac7 mer peptide was diluted to 10 nM in running buffer and captured onto a sensor surface pre-derivatized with streptavidin (sensor chip SA) towards peptide surface densities in the range 40-100 R.U. Peptide captured surfaces were blocked with 500 μM PEO2-Biotin (Thermo Scientific).
(§6) Interaction analyses were performed by first equilibrating each compound within a six point seven fold compound dilution series in the range 1 μM to 0.06 nM with either 100 nM XIAP-BIR3 or 6 nM cIAP1-BIR3 for at least one hour during instrument start-up procedures. Protein compound mixtures were then injected over reference and smac7 mer peptide surfaces in series for 60 seconds at a flow-rate of 64 μL/minutes. Surface regeneration was performed at the end of each analysis cycle by a 30 second injection of 10 mM Glycine, pH 2.5, 1M Sodium Chloride, 0.05% polysorbate 20. Additionally, control compound samples and control XIAP-BIR3 or cIAP1-BIR3 samples were prepared and run at regular intervals to monitor surface and assay performance.
(§7) Data analyses were carried out using Biacore™ T100 evaluation software v2.0 to validate assay quality. Binding level report points were plotted versus logarithmic compound concentration values and analyzed in Graphpad prism 5 via non-linear regression using a one-site competition model. EC50 values were generated and used as a measure of inhibitor potency.

[2] = system: Panc3.27 tumor cells; assay: Cellular assay, Panc3.27 tumor cell proliferation (Cell Titer Glo); format: cell-based; conditions: citrate salt form tested, Panc3.27 cells, 72 hour growth, read-out: PANC proliferation IC50
Protocol: as §1
(§8) On day one adherent SKOV3 and Panc3.27 cells are plated into two 96-well, clear, flat bottom plates. All wells in row A contain 90 uL of media. All wells in rows B-G contain a total volume of 90 uL per well and 2000 cells per well for SKOV3 and 4000 cells per well for Panc3.27 cell lines. Plates are then incubated overnight for 18 hours at 37° C., 5% CO2.
(§9) On day two cells are treated with the compounds of formula M-L-M′. Treatments are done in triplicate. The compounds are first serially diluted in DMSO and then added to media giving a final concentration of 0.2% DMSO when added to cells. Cells are treated with 10 uL of serially diluted compounds of formula M-L-M′ at a final concentration of 1000 nM, 200 nM, 40 nM, 8 nM, 1.6 nM, 0.32 nM, 0.06 nM, 0.013 nM, 0.0026 nM, and one untreated well. Plate two is used as a time zero plate.
(§10) To measure cell viability 50 uL of Cell Titer Glo (CTG) solution is added to row A, media only and B, cells and media. CTG is purchased from Promega Corporation catalog number G7573. The solution is prepared according to manufacturer's instructions. CTG measures the amount of ATP released from viable cells that is proportional to the number of cells in each well. After incubating for ten minutes with CTG plates are measured on a luminescent reader at 700 nm wavelength. Read time is approximately one second per well for a 96-well plate.
(§11) On day five 50 uL of CTG is added to plate one, rows A-G, incubated for 10 minutes at room temperature and read on a luminescent reader. Raw data is adjusted to account for the time zero plate as well as background noise. Triplicate values are averaged and percent control growth is calculated. Percent control growth is calculated using the following logical test: If well read data point (a) is greater than time zero data point (t=0), then 100*[(a)−(t=0)]/[(72 hour total growth)−(t=0)], OR 100*[(a)−(t=0)]/[(t=0)]. Data is represented by line graph with the concentration of compound on the x axis and percent control growth on the y axis.

[3] = system: SKOV3 tumor cells; assay: Cellular assay, SKOV3 tumor cell proliferation (Cell Titer Glo); format: cell-based; conditions: Homo sapiens, SK-OV-3, citrate salt form tested, 72 hour growth
Protocol: as §1, §8, §9, §10, §11

[4] = molecular target: XIAP-BIR3 (Homo sapiens, UniProt P98170); assay: Biacore SPR solution competition binding assay vs smac7 mer peptide, XIAP-BIR3; conditions: citrate salt form tested; 100 nM XIAP-BIR3; 25° C.; read-out: XIAP-BIR3 Binding Biacore (Competitive) EC50
Sequence of XIAP-BIR3 (P98170 241-356 limits assumed): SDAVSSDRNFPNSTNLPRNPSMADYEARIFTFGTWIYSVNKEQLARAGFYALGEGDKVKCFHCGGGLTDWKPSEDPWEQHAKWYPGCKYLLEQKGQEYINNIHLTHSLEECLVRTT
Text: as §1, §2, §3, §4, §5, §6, §7

Sequence of cIAP1-BIR3 (Q13490 260-352 limits assumed): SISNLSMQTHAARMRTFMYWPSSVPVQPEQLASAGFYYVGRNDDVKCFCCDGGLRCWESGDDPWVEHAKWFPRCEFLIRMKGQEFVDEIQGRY

EC50 [1] [nM]	IC50 [2] [nM]	IC50 [3] [nM]	EC50 [4] [nM]	Structure (SMILES)
0.68 to 0.7	72.4 to 427	41 to 77.1	126 to 131	CN[C@@H](C)C(=O)N[C@@H](CCCCNC(=O)CCCCCC(=O)NCCCC[C@H](NC(=O)[C@H](C)NC)C(=O)N1CCC[C@H]1c1cncc(C(=O)c2ccc(F)cc2)c1)C(=O)N1CCC[C@H]1c1cncc(C(=O)c2ccc(F)cc2)c1 [Example 1A, Heptanedioic acid bis-{[(S)-6-{(S)-2-[5-(4-fluoro-benzoyl)-pyridin-3-yl]-pyrrolidin-1-yl}-5-((S)-2-methylamino-propionylamino)-6-oxo-hexyl]-amide}]
4.75 to 4.89	63.3 to 147	84 to 127	413 to 425	CN[C@@H](C)C(=O)N[C@@H](CCCCNC(=O)c1ccc(C(=O)NCCCC[C@H](NC(=O)[C@H](C)NC)C(=O)N2CCC[C@H]2c2cncc(C(=O)c3ccc(F)cc3)c2)cc1)C(=O)N1CCC[C@H]1c1cncc(C(=O)c2ccc(F)cc2)c1 [Example 1C, N,N′-Bis-[(S)-6-{(S)-2-[5-(4-fluorobenzoyl)-pyridin-3-yl]-pyrrolidin-1-yl}-5-((S)-2-methylamino-propionylamino)-6-oxo-hexyl]-terephthalamide]
18.4 to 19.4	> 10000	9420 to 9460	636 to 704	O=C(NCCCC[C@H](NC(=O)[C@@H]1CCN1)C(=O)N1CCC[C@H]1c1cncc(C(=O)c2ccc(F)cc2)c1)c1ccc(-c2ccc(C(=O)NCCCC[C@H](NC(=O)[C@@H]3CCN3)C(=O)N3CCC[C@H]3c3cncc(C(=O)c4ccc(F)cc4)c3)cc2)cc1 [Example 1K, Biphenyl-4,4′-dicarboxylic acid bis-[((S)-5-[((S)-azetidine-2-carbonyl)-amino]-6-{(S)-2-[5-(4-fluoro-benzoyl)-pyridin-3-yl]-pyrrolidin-1-yl}-6-oxo-hexyl)-amide]]
0.73 to 0.74	–	23.5 to 25.8	146 to 154	CN[C@@H](C)C(=O)N[C@@H](Cc1ccc(NC(=O)CCCCCC(=O)Nc2ccc(C[C@H](NC(=O)[C@H](C)NC)C(=O)N3CCC[C@H]3c3cncc(C(=O)c4ccc(F)cc4)c3)cc2)cc1)C(=O)N1CCC[C@H]1c1cncc(C(=O)c2ccc(F)cc2)c1 [Example 2A, Heptanedioic acid bis-({4-[(S)-3-{(S)-2-[5-(4-fluoro-benzoyl)-pyridin-3-yl]-pyrrolidin-1-yl}-2-((S)-2-methylamino-propionylamino)-3-oxo-propyl]-phenyl}-amide)]

The remaining lines, values behind:

Structure (SMILES)	EC50 [1] [nM]	IC50 [2] [nM]	IC50 [3] [nM]	EC50 [4] [nM]
CN[C@@H](C)C(=O)N[C@@H](CCCCNS(=O)(=O)c1ccc(-c2ccc(S(=O)(=O)NCCCC[C@H](NC(=O)[C@H](C)NC)C(=O)N3CCC[C@H]3c3cncc(C(=O)c4ccc(F)cc4)c3)cc2)cc1)C(=O)N1CCC[C@H]1c1cncc(C(=O)c2ccc(F)cc2)c1 [Example 1D, (S)-N-((S)-1-((S)-2-(5-(4-fluorobenzoyl)pyridin-3-yl)pyrrolidin-1-yl)-6-(4′-(N-((S)-6-((S)-2-(5-(4-fluorobenzoyl)pyridin-3-yl)pyrrolidin-1-yl)-5-((S)-2-(methylamino)propanamido)-6-oxohexyl)sulfamoyl)biphenyl-4-ylsulfonamido)-1-oxohexan-2-yl)-2-(methylamino)propanamide]	0.31 to 0.34	12.3 to 119	37.4 to 84.2	88.5 to 129
CN[C@@H](C)C(=O)N[C@@H](CCCCNC(=O)c1cccc(C(=O)NCCCC[C@H](NC(=O)[C@H](C)NC)C(=O)N2CCC[C@H]2c2cncc(C(=O)c3ccc(F)cc3)c2)c1)C(=O)N1CCC[C@H]1c1cncc(C(=O)c2ccc(F)cc2)c1 [Example 1E, N,N′-Bis-[(S)-6-{(S)-2-[5-(4-fluoro-benzoyl)-pyridin-3-yl]-pyrrolidin-1-y}-5-((S)-2-methylamino-propionylamino)-6-oxo-hexyl]-isophthalamide]	0.47 to 0.52	26.8 to 185	26.7 to 79.4	139 to 158
CN[C@@H](C)C(=O)N[C@@H](CCCCNC(=O)CCCCCCCC(=O)NCCCC[C@H](NC(=O)[C@H](C)NC)C(=O)N1CCC[C@H]1c1cncc(C(=O)c2ccc(F)cc2)c1)C(=O)N1CCC[C@H]1c1cncc(C(=O)c2ccc(F)cc2)c1 [Example 1F, Nonanedioic acid bis-{[(S)-6-{(S)-2-[5-(4-fluoro-benzoyl)-pyridin-3-yl]-pyrrolidin-1-yl}-5-((S)-2-methylamino-propionylamino)-6-oxo-hexyl]-amide}]	0.68 to 0.69	12.8 to 106	16.1 to 20.1	129 to 145
CN[C@@H](C)C(=O)N[C@@H](CCCCNC(=O)CCCCCCCCC(=O)NCCCC[C@H](NC(=O)[C@H](C)NC)C(=O)N1CCC[C@H]1c1cncc(C(=O)c2ccc(F)cc2)c1)C(=O)N1CCC[C@H]1c1cncc(C(=O)c2ccc(F)cc2)c1 [Example 1G, Decanedioic acid bis-{[(S)-6-{(S)-2-[5-(4-fluoro-benozyl)-pyridin-3-yl]-pyrrolidin-1-yl}-5-((S)-2-methylamino-propionylamino)-6-oxo-hexyl]-amide}]	0.71	5.22 to 27.9	9.64 to 16.4	97.2 to 108
CN[C@@H](C)C(=O)N[C@@H](CCCCNS(=O)(=O)c1ccc2ccc(S(=O)(=O)NCCCC[C@H](NC(=O)[C@H](C)NC)C(=O)N3CCC[C@H]3c3cncc(C(=O)c4ccc(F)cc4)c3)cc2c1)C(=O)N1CCC[C@H]1c1cncc(C(=O)c2ccc(F)cc2)c1 [Example 1H, (S)-N-((S)-1-((S)-2-(5-(4-fluorobenzoyl)pyridin-3-yl)pyrrolidin-1-yl)-6-(7-(N-((S)-6-((S)-2-(5-(4-fluorobenzoyl)pyridin-3-yl)pyrrolidin-1-yl)-5-((S)-2-(methylamino)propanamido)-6-oxohexyl)sulfamoyl)naphthalene-2-sulfonamido)-1-oxohexan-2-yl)-2-(methylamino)propanamide]	0.88	13.3 to 140	80.8 to 86.4	46.3 to 53.5
CN[C@@H](C)C(=O)N[C@@H](Cc1ccc(NC(=O)CCCCCCCCC(=O)Nc2ccc(C[C@H](NC(=O)[C@H](C)NC)C(=O)N3CCC[C@H]3c3cncc(C(=O)c4ccc(F)cc4)c3)cc2)cc1)C(=O)N1CCC[C@H]1c1cncc(C(=O)c2ccc(F)cc2)c1 [Example 2B, Decanedioic acid bis-({4-[(S)-3-{(S)-2-[5-(4-fluoro-benzoyl)-pyridinyl-3-yl]-pyrrolidin-1-yl}-2-((S)-2-methylamino-propionylamino)-3-oxo-propyl]-phenyl}-amide)]	0.37 to 0.41	11.7 to 25.9	7.39 to 15.4	131 to 194
